# Test results reported in patent US20250082781A1, “METHODS OF LOWERING BLOOD GLUCOSE AND TREATING TYPE 2 DIABETES BY ACTIVATION OF PDE4D3” (Salk Institute for Biological Studies, priority 2021, published 2025).
# How the values were obtained:
# [1] = test system: serum FFA levels; experiment: Serum FFA levels in DIO mice; assay type: in vivo, mouse; conditions: FGF1 0.5 mg/kg s.c.
# Method: Mice were kept in 12 h light/dark cycle in a temperature-controlled environment. Mice had free access to food and water unless noted otherwise. C57/B6 mice background was used unless noted otherwise. C57BL/6J and ob/ob (000632-B6. Cg-Lepob/J) male mice were obtained from Jackson Laboratory. PDE4D knock-out mice (034588-UCD) were obtained from MMRRC. For diet-induced obesity (DIO) studies, mice were fed a high fat diet (HFD) (60% fat, F3282; Bio-Serv) for minimum of 12 weeks to induce insulin resistance when diet-induced obese model is used. Insulin levels and blood glucose levels were monitored to confirm insulin resistance. To generate adipose-specific FGFR1 deletion, adiponectin-cre mice (B6; FVB-Tg (Adipoq-cre)1Evdr/J; Stock: 010803) were crossed to Fgfr1 flox/flox (B6.129S4-Fgfr1tm5.1Sor/J; Stock: 00767) mice. For AAV mediated expression of target proteins in adipose tissue, 5×10E+11 genomic copies of AAV were injected via tail vein or retro-orbital route.
# Recombinant FGF1 (rFGF1) was dissolved in phosphate-buffered saline (PBS) at a concentration of 0.2 mg/ml and was injected subcutaneously at a 0.5 mg kg^−1 dose. Blood glucose was monitored at indicated time points after injection. For initial measurements (2-4 h) food was removed after injection to exclude any indirect effects stemming from anorexigenic effects of FGF1. PDE4 inhibitor roflumilast stock in DMSO was diluted at 1 mg/ml in 30% captisol, pH 10 and delivered to mice thorough oral gavage at 5 mg kg^−1 dose. PDE3 inhibitor cilostamide stock in DMSO was diluted at 2 mg/ml in 30% captisol and delivered through intraperitoneal injection at 10 mg kg^−1 dose.
# [2] = test system: oleic acid turnover; experiment: 3H-labeled oleic acid turnover (in vivo lipolysis); set-up: species or system mouse
# Method: FIGS. 1A-1I: FGF1 suppresses adipose lipolysis. (FIG. 1A) Ex-vivo lipolysis in gonadal white adipose tissue (gWAT) explants from wildtype (F1WT) and FGF1 KO (FIKO) mice 6 h after refeeding. Data are represented as mean±SEM (n=4, *p<0.05). (FIG. 1B) Lipolysis in mouse SVF-derived adipocytes measured by the cumulative release of free fatty acids (FFAs) into the media over 4 h. Cells were pretreated with vehicle (PBS) or FGF1 (100 ng/ml) for 10 min prior to the induction of lipolysis with 1 nM isoproterenol (ISO). Data are represented as mean±SEM (n=3, *p<0.05, **p<0.01). (FIG. 1C) Dose response of FGF1-induced suppression of lipolysis in 3T3-L1 adipocytes. Cells were pretreated with the indicated doses of FGF1 for 10 min prior to the induction of lipolysis with 100 nM isoproterenol (ISO), and the cumulative release of FFAs over 4 h was measured. Data are represented as mean±SEM (n=3, **p<0.01, ***p<0.001). […] Plasma radioactivity was measured by scintillation counting and normalized to t=1 min. Fractional oleic acid turnover rate was calculated by linear regression of natural log transformed data (adR1WT vehicle n=5, FGF1 n=4; adR1KO vehicle n=4, FGF1 n=5). […] Quantification of pHSL-S660 normalized to total HSL is shown in the right panel. […] Quantification of pHSL-S660 normalized to total HSL (right panel). […]
# [3] = test system: hepatic glucose production; experiment: Pyruvate tolerance and glycerol tolerance tests; assay type: in vivo, mouse
# Method: Pyruvate tolerance and glycerol tolerance tests were performed in ob ob and DIO mice after overnight fasting at 1.5 g kg^−1 dose using sodium pyruvate (0.2 g/ml) or 20% glycerol solution in PBS. Insulin tolerance test and glucose tolerance test were performed in ob ob mice after 8 h fasting. 2 U kg^−1 insulin (Humulin R) and 0.5 g kg^−1 glucose were used respectively. Blood glucose from tail bleeding was monitored by a OneTouch glucometer.
# [4] = overnight fasted ob/ob mice, 2 h after FGF1 0.5 mg/kg
substance,measurement,setting,value
"FGF1: Recombinant fibroblast growth factor 1 protein, dissolved in PBS, injected subcutaneously",serum FFA levels,[1]; overnight fasted DIO adR1KO mice,failed to affect adR1KO mice
same,reduction of serum FFA levels,"[1]; overnight fasted DIO adR1WT mice, 30 min",~30%
same,oleic acid turnover,"[2]; adR1KO mice, FGF1 pretreatment",not affected
same,fractional turnover rate of oleic acid,"[2]; adR1WT mice, FGF1 0.5 mg/kg s.c. 6 h before infusion",reduced
same,pyruvate and glycerol tolerance tests,"[3]; DIO mice, 2 h after FGF1 0.5 mg/kg",replicated in DIO mice
same,suppression of pyruvate utilization,[3]; adR1WT vs adR1KO DIO mice,dependent on adipocyte FGFR1 expression
same,glycerol tolerance test,[3]; [4],no differences
same,pyruvate tolerance test (glucose synthesis from pyruvate),[3]; [4],markedly reduced ability to synthesize glucose from pyruvate
